Data set [1] relates to SMN2 minigene (full length SMN2 minigene mRNA containing SMN2 exon 7). The data set is described as follows: SMN2 minigene mRNA splicing RT-qPCR assay in cultured cells. In kind it is cell-based, human. To be noted: Homo sapiens, HEK293-H; HEK293H cells stably transfected with SMN2-A minigene; 24 hours; 7-point concentration curve; 1.5-fold relative to vehicle-treated cells; read-out: EC1.5x for production of full length SMN2 mRNA. In short, it runs like this: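 Lysates → one-step RT-qPCR, minigene-specific primers (0.4 μM final) + GAPDH multiplex, 40 cycles. FL/GAPDH vs DMSO; EC1.5x, star-binned.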

The subject of another data set is Smn protein. As to the kind of experiment: Smn protein assay in cultured cells (SMN HTRF). In kind it is cell-based, human. Conditions: 48 hours; for EC1.5x (concentration giving 1.5-fold Smn protein increase): SMA Type 1 patient fibroblast cells (GM03813), 7-point concentration curve, SMN HTRF, concentration producing 1.5 times Smn protein vs DMSO vehicle control, read-out: EC1.5x for Smn protein expression; for maximum fold (Fold) increase of Smn protein: SMA patient fibroblast cells, 7-point concentration data, fold increase relative to vehicle control (SMN HTRF). The method, boiled down: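 Smn in SMA fibroblast lysates, measured by anti-SMN HTRF after 48 h compound exposure; EC1.5x from fold change over vehicle.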
(In general: Time-resolved FRET reads energy transfer from a long-lived donor to a nearby acceptor.)

The structures appear in SMILES notation.

What is called melting point is the temperature, or range, at which the solid turns liquid. `CCCN1CCN(c2ccc3cc(-c4cc5cc(C)nc(C)c5o4)c(=O)oc3c2)CC1` [Compound 815, 3-(5,7-dimethylfuro[2,3-c]pyridin-2-yl)-7-(4-propylpiperazin-1-yl)-2H-chromen-2-one] had a melting point of 259 to 262 °C. Further, the EC (1.5-fold) in data set [1] is under 0.1 µM. Moreover, in the data set on Smn protein, the EC1.5x (concentration giving 1.5-fold Smn protein increase) was under 300 nM; the “maximum fold (Fold) increase of Smn protein” value (“maximum fold (Fold) increase” for short) was “**** (fold increase between >1.5 and ≤1.65)”.

For `Cc1cn2cc(-c3cc4ccc(N5CC[C@H](N(C)C)C5)cc4oc3=O)cc2c(C)n1` [Compound 697, 7-[(3S)-3-(dimethylamino)pyrrolidin-1-yl]-3-(1,3-dimethylpyrrolo[1,2-a]pyrazin-7-yl)-2H-chromen-2-one], the melting point fell in the range of 195 to 198 °C. In addition, in data set [1], the EC (1.5-fold) is under 0.1 µM. In the data set on Smn protein, the EC1.5x (concentration giving 1.5-fold Smn protein increase) fell in the range of 300 to 1000 nM; the “maximum fold (Fold) increase” value is “*** (fold increase between >1.35 and ≤1.5)”.

`CNCCCc1ccc2cc(-c3cn4cc(C)nc(C)c4n3)c(=O)oc2c1` [Compound 912, 3-(6,8-dimethylimidazo[1,2-a]pyrazin-2-yl)-7-[3-(methylamino)propyl]-2H-chromen-2-one] showed a melting point of 197 to 201 °C. In addition, the EC (1.5-fold) in data set [1] was under 0.1 µM. In the data set with Smn protein, the EC1.5x (concentration giving 1.5-fold Smn protein increase) was under 300 nM; the “maximum fold (Fold) increase” value was “**** (fold increase between >1.5 and ≤1.65)”.

The molecule `Cc1cccc2oc(-c3cc4ccc(N5C[C@@H](C)N[C@@H](C)C5)cc4oc3=O)nc12` [Compound 31, 7-[(3R,5S)-3,5-dimethylpiperazin-1-yl]-3-(4-methyl-1,3-benzoxazol-2-yl)-2H-chromen-2-one] had a melting point of 243 to 245 °C. In addition, the EC (1.5-fold) in data set [1] was 3 to 30 µM. For the same molecule, the “maximum fold (Fold) increase” value in the data set with Smn protein is reported as “* (maximum fold increase of ≤1.2)”.

`Cc1cn2cc(-c3cc4ccc(C5CCN(C6COC6)CC5)cc4oc3=O)ccc2n1` [Compound 828, 3-(2-methylimidazo[1,2-a]pyridin-6-yl)-7-[1-(oxetan-3-yl)piperidin-4-yl]-2H-chromen-2-one] yielded a melting point of 198 to 200 °C. Besides, the EC (1.5-fold) in data set [1] lay in the range of 0.1 to 0.3 µM. Also, in the data set on Smn protein, the EC1.5x (concentration giving 1.5-fold Smn protein increase) lay in the range of 300 to 1000 nM and the “maximum fold (Fold) increase” value is recorded as “***** (fold increase >1.65)”.

For the molecule `C[C@@H]1CN(c2ccc3cc(-c4cn5cccnc5n4)c(=O)oc3c2)CCN1` [Compound 169, 3-(imidazo[1,2-a]pyrimidin-2-yl)-7-[(3R)-3-methylpiperazin-1-yl]-2H-chromen-2-one], the melting point lay in the range of 285 to 287 °C. For the same molecule, in data set [1], the EC (1.5-fold) was in the range of 0.3 to 1 µM. In addition, in the data set on Smn protein, the EC1.5x (concentration giving 1.5-fold Smn protein increase) was in the range of 1000 to 3000 nM; the “maximum fold (Fold) increase” value was “*** (fold increase between >1.35 and ≤1.5)”.

Turning to `COc1ccc(-c2cc3ccc(N4C[C@@H](C)N[C@@H](C)C4)cc3oc2=O)cc1C` [Compound 543, 7-[(3R,5S)-3,5-dimethylpiperazin-1-yl]-3-(4-methoxy-3-methylphenyl)-2H-chromen-2-one], the melting point is 111 to 113 °C. In addition, the EC (1.5-fold) in data set [1] fell in the range of 1 to 3 µM. Moreover, in the data set on Smn protein, the “maximum fold (Fold) increase” value was “* (maximum fold increase of ≤1.2)”.

Take `Cc1cn2cc(-c3cc4ccc(N5CCN(C(C)C)CC5)cc4oc3=O)cc2c(C)n1` [Compound 709, 3-(1,3-dimethylpyrrolo[1,2-a]pyrazin-7-yl)-7-[4-(propan-2-yl)piperazin-1-yl]-2H-chromen-2-one]: the melting point lay within 173 to 176 °C. Further, the EC (1.5-fold) in data set [1] was under 0.1 µM. Moreover, in the data set on Smn protein, the EC1.5x (concentration giving 1.5-fold Smn protein increase) was in the range of 300 to 1000 nM; the “maximum fold (Fold) increase” value was “**** (fold increase between >1.5 and ≤1.65)”.

Values taken from patent publication USRE47689E1, “Compounds for treating spinal muscular atrophy” (PTC Therapeutics, Inc., priority 2011, dated 2019).
